Data from patent US20090263838A1, “Method for determining a lung cancer treatment and method for determining the effectiveness of an agent for treatment of lung cancer” (Sanko Junyaku Co., Ltd., priority 2008, published 2009).
Read-outs that look alike come from different tables or passages of the source.

System: non-small cell lung cancer (NSCLC) patients
Description: Potential factors linked to survival such as age, gender, performance status, smoking history, tumor histology, number of prior chemotherapy regimen, and presence of distant metastasis were also reviewed for each patient. Pretreatment interstitial lung disease was diagnosed using a high resolution computed tomography scan of the chest by diagnostic radiologists blinded to any clinical information.
The tumor response was assessed as complete response (CR), partial response (PR), no change (NC), or progressive disease (PD) according to the World Health Organization Criteria.
The cut-off level of KL-6 was set at 500 U/ml based on the levels of healthy individuals as reported previously.
Genomic DNAs were extracted from frozen or paraffin embedded specimens and the mutational status of the EGFR tyrosine kinase domain (through exons 18 to 21) was examined by the direct sequence method as described previously. In brief, the PCR amplification for extracted DNAs was done using HotStarTaq DNA polymerase (Qiagen Inc., Valencia, Calif.) with the specific primers and PCR conditions. PCR products were incubated using ExoSAP-IT (Amersham Biosciences Corp., Piscataway, N.J.) and then it was sequenced directly using the Applied Biosystems PRISM dye terminator cycle sequencing method (Perkin-Elmer Corp., Foster City, Calif.) with ABI PRISM 3100 Genetic Analyzer (Applied Biosystems, Foster City, Calif.).
The associations between various clinical factors were evaluated using either the χ^2 test or the Fisher's exact test. […] The progression-free and overall survival times were both calculated using the Kaplan-Meier method; different groups were compared using the log-rank test. Associations of various factors with survival were evaluated using the backward stepwise Cox regression analysis. Differences were considered to be statistically significant if the p value was less than 0.05.

[1] = patients with elevated KL-6 (≧500 U/ml)
[2] = patients with normal range of KL-6

## COc1cc2ncnc(Nc3ccc(F)c(Cl)c3)c2cc1OCCCN1CCOCC1 [gefitinib]
All 41 NSCLC patients
  complete response (CR), number of patients: One
  early discontinuance of gefitinib (less than 2 weeks) because of rapid tumor progression: 3 (7%) patients
  no change (NC), number of patients: 20 patients
  partial response (PR), number of patients: ten
  progressive disease (PD), number of patients: 10 patients
All 41 NSCLC patients, gefitinib 250 mg daily oral, WHO criteria
  overall objective response rate: 26.8%
All 41 patients
  1-year survival rate: 61.0%
  2-year survival rate: 29.8%
  median overall survival time: 13.9 months
  median progression-free survival time: 4.7 months
All 41 patients, during the study period
  severe interstitial lung disease or treatment-related death due to gefitinib treatment: neither severe interstitial lung disease nor treatment-related death occurred
Patients with an EGFR mutation
  overall survival: 17.8 months
[1]
  median overall survival time: 8.5 months
  median progression-free survival time: 2.1 months
Patients with elevated serum KL-6 levels (≧500 U/ml)
  response to gefitinib: 23%
[2]
  median overall survival time: 21.1 months
  median progression-free survival time: 5.8 months
Patients with wild-type EGFR
  overall survival: 8.5 months
Patients with wild-type EGFR and elevated serum KL-6
  median survival time: 6.5 months
Patients with wild-type EGFR and normal range of KL-6
  median survival time: 13.3 months
Patients without elevated serum KL-6 levels
  response to gefitinib: 32%
